Our source for the IC50 values is patent US20160016951A1 (Merck Patent GmbH, priority 2014, published 2016).

The structures appear in SMILES notation. Read-outs that look alike come from different tables or passages of the source.

For the experiment, the target named is T1, CDK8 (CDK8/CycC) (Homo sapiens, UniProt P49336).
T1 construct: purchased Invitrogen PV4402
In words: FRET based Lanthascreen binding competition assay. The method, then:
FRET based Lanthascreen binding competition assay: A dye-labeled ATP competitive probe served as a FRET acceptor upon binding to CDK8 labeled with a strepavidin —Eu-chelate (via abiotinylated anti His antibody). […] In case this probe was competed by an inhibitor as such a signal cannot be generated any more. The CDK8 used for this assay was a protein co-expressed with CycC.
The assay procedure for an assay in a 1536 well plate was performed according to the following: 2 μL CDK8/biotin-anti-His Ab/SA-Eu mix in Assay buffer were pipetted into the wells of a micro plate.
1 μL compound in 20 mM Hepes buffer/5% DMSO was added. The plate was shaken for 30 sec and incubated for 20 min at RT. 2 μL Alexa647-probe in assay buffer were added. The plate was shaken for 30 sec again and incubated for 60 min at RT in the dark. Then the plate was read out on a Perkin Elmer Envision (mode LANCE/TRF, excitation 340 nm emission 650 nm).
In general terms: Time-resolved FRET reads energy transfer from a long-lived donor to a nearby acceptor.

Setting [1] is: 5 nM CDK8/CycC, 10 nM Alexa647-Tracer, 1% DMSO, 60 min at RT, read-out: IC50 CDK8 binding.

T1 sequence (P49336 whole entry): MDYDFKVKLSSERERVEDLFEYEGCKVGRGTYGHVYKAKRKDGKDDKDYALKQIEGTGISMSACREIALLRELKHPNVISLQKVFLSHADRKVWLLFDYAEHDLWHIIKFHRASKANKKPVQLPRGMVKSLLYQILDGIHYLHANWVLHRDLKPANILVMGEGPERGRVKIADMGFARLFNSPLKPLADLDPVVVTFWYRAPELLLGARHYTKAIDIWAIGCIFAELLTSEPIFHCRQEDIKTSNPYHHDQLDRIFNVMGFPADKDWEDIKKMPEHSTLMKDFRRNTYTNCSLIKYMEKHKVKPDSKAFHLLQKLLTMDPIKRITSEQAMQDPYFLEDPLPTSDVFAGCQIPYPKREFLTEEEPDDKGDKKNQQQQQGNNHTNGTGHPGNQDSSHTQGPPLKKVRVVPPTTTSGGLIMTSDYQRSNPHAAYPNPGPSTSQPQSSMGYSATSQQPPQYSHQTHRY
T1 sequence (P24863 whole entry partner): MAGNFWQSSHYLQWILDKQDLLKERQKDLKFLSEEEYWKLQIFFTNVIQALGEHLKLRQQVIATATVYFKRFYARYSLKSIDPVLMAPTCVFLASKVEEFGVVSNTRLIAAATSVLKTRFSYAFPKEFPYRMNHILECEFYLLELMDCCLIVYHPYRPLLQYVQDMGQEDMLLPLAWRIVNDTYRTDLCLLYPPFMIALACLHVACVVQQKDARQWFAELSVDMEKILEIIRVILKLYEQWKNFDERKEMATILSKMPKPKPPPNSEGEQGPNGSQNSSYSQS

`Cn1cc(-c2ccc(-c3cncc4ccc(-c5nnn(C)n5)cc34)cc2)cn1` [Compound 117, 4-(4-(1-methyl-1H-pyrazol-4-yl)phenyl)-6-(2-methyl-2H-tetrazol-5-yl)isoquinoline]: the IC50 under setting [1] lay in the range of 10 to 100 nM.

In the case of `Cn1cc(-c2ccc(-c3cncc4ccc(S)nc34)cc2)cn1` [Compound 77, 8-(4-(1-methyl-1H-pyrazol-4-yl)phenyl)-1,6-naphthyridine-2-thiol], the IC50 under setting [1] lay in the range of 10 to 100 nM.

On to `C[C@@H](NC(=O)c1ccc2cncc(-c3ccc(-c4cnn(C)c4)cc3)c2n1)c1ccccc1` [Compound 24, (R)-8-(4-(1-methyl-1H-pyrazol-4-yl)phenyl)-N-(1-phenylethyl)-1,6-naphthyridine-2-carboxamide], for which the IC50 under setting [1] was < 10 nM.

Regarding `COC1CN(C(=O)c2ccc3cncc(-c4ccc(-c5cnn(CC(C)(C)O)c5)cc4)c3n2)C1` [Compound 31, (8-(4-(1-(2-hydroxy-2-methylpropyl)-1H-pyrazol-4-yl)phenyl)-1,6-naphthyridin-2-yl)(3-methoxyazetidin-1-yl)methanone], under setting [1], the IC50 is < 10 nM.

Regarding `COC1CN(C(=O)c2ccc3cncc(-c4ccc5nn(CC(C)(C)O)cc5c4)c3n2)C1` [Compound 33, (8-(2-(2-hydroxy-2-methylpropyl)-2H-indazol-5-yl)-1,6-naphthyridin-2-yl)(3-methoxyazetidin-1-yl)methanone], under setting [1], the IC50 is < 10 nM.

For the compound `Cn1cc(-c2ccc(-c3cncc4ccc(C(=O)N5CC(C)(F)C5)cc34)cc2)cn1` [Compound 186, (3-fluoro-3-methylazetidin-1-yl)(4-(4-(1-methyl-1H-pyrazol-4-yl)phenyl)isoquinolin-6-yl)methanone], the 50% inhibitory concentration (IC50) under setting [1] was in the range of 10 to 100 nM.

As for `COC1CN(C(=O)c2ccc3c(N)ncc(-c4ccc5c(c4)CCC(=O)N5C)c3c2)C1` [Compound 178, 6-(1-amino-6-(3-methoxyazetidine-1-carbonyl)isoquinolin-4-yl)-1-methyl-3,4-dihydroquinolin-2(1H)-one], the IC50 under setting [1] is 101 to 500 nM.

Take `Cn1cc(-c2ccc(-c3cncc4ccc(N5C(=O)CCC5=O)cc34)cc2)cn1` [Compound 126, 1-{4-[4-(1-Methyl-1H-pyrazol-4-yl)-phenyl]-isoquinolin-6-yl}-pyrrolidine-2,5-dione]: under setting [1], the half-maximal inhibitory concentration (IC50) lay in the range of 101 to 500 nM.

`Cn1cc(-c2ccc(-c3cncc4ccc(C(=O)N5CCN(C(=O)OC(C)(C)C)CC5)cc34)cc2)cn1` [Compound 124, tert-butyl 4-(4-(4-(1-methyl-1H-pyrazol-4-yl)phenyl)isoquinoline-6-carbonyl)piperazine-1-carboxylate]: under setting [1], the IC50 was in the range of 101 to 500 nM.

For `CNC(=O)c1nc2c(-c3ccc4c(c3)CS(=O)(=O)N4C)cncc2cc1C` [Compound 12, 3-Methyl-8-(1-methyl-2,2-dioxo-2,3-dihydro-1H-benzo[c]isothiazol-5-yl)-[1,6]naphthyridine-2-carboxylic acid methylamide], the 50% inhibitory concentration (IC50) under setting [1] was < 10 nM.

For the compound `CC(C)S(=O)(=O)Nc1ccc2cncc(-c3ccc(-c4cnn(C)c4)cc3)c2c1` [Compound 157, Propane-2-sulfonic acid {4-[4-(1-methyl-1H-pyrazol-4-yl)-phenyl]-isoquinolin-6-yl}-amide], the half-maximal inhibitory concentration (IC50) under setting [1] is < 10 nM.

Regarding `COC1CN(C(=O)c2ccc3cncc(-c4ccc5c(cnn5CC(C)(C)O)c4)c3c2)C1` [Compound 132, (4-(1-(2-hydroxy-2-methylpropyl)-1H-indazol-5-yl)isoquinolin-6-yl)(3-methoxyazetidin-1-yl)methanone], the IC50 under setting [1] lay within 101 to 500 nM.

As for `Cn1cc(-c2ccc(-c3cncc4ccc(N5CCNCC5)nc34)cc2)cn1` [Compound 72, 8-(4-(1-methyl-1H-pyrazol-4-yl)phenyl)-2-(piperazin-1-yl)-1,6-naphthyridine], the IC50 under setting [1] lay within 501 to 1000 nM.

For `CC(C)(O)Cn1cc(-c2ccc(-c3cncc4ccc(C(=O)N5CCOCC5)cc34)cc2)cn1` [Compound 135], the IC50 under setting [1] was in the range of 10 to 100 nM.

On to `CC1CCC(=O)N1c1ccc2cncc(-c3ccc(-c4cnn(C)c4)cc3)c2c1` (centres unmarked) [Compound 114, 5-Methyl-1-{4-[4-(1-methyl-1H-pyrazol-4-yl)-phenyl]-isoquinolin-6-yl}-pyrrolidin-2-one], for which, under setting [1], the IC50 was 10 to 100 nM.

As for `CNC(=O)c1ccc2c(N)ncc(-c3ccc(-c4cnn(C)c4)cc3F)c2n1` [Compound 40, 5-amino-8-(2-fluoro-4-(1-methyl-1H-pyrazol-4-yl)phenyl)-N-methyl-1,6-naphthyridine-2-carboxamide], the half-maximal inhibitory concentration (IC50) under setting [1] fell in the range of 10 to 100 nM.

Turning to `CN1c2ccc(-c3cncc4ccccc34)cc2CS1(=O)=O` [Compound 100, 5-(isoquinolin-4-yl)-1-methyl-1,3-dihydrobenzo[c]isothiazole 2,2-dioxide], the IC50 under setting [1] is < 10 nM.

`CN1c2ccc(-c3cncc4ccc(-c5nccn5C)cc34)cc2CS1(=O)=O` [Compound 93, 1-methyl-5-(6-(1-methyl-1H-imidazol-2-yl)isoquinolin-4-yl)-1,3-dihydrobenzo[c]isothiazole 2,2-dioxide]: under setting [1], the IC50 was < 10 nM.

For the compound `COCC(=O)Nc1ccc2cncc(-c3ccc(-c4cnn(C)c4)cc3)c2c1` [Compound 121, 2-Methoxy-N-{4-[4-(1-methyl-1H-pyrazol-4-yl)-phenyl]-isoquinolin-6-yl}-acetamide], under setting [1], the half-maximal inhibitory concentration (IC50) fell in the range of 10 to 100 nM.

In the case of `Cn1cc(-c2ccc(-c3cncc4ccc(NS(C)(=O)=O)cc34)cc2)cn1` [Compound 98, N-{4-[4-(1-Methyl-1H-pyrazol-4-yl)-phenyl]-isoquinolin-6-yl}-methanesulfonamide], under setting [1], the IC50 is < 10 nM.

On to `O=C1Cc2ccc(-c3cncc4ccc(C(=O)N5CC(F)(F)C5)cc34)cc2N1` [Compound 146, 6-(6-(3,3-difluoroazetidine-1-carbonyl)isoquinolin-4-yl)indolin-2-one], for which the IC50 under setting [1] lay within 10 to 100 nM.

`Cc1ncc(-c2ccc(-c3cnn(C)c3)cc2)c2nc(C(N)=O)ccc12` [Compound 61, 5-Methyl-8-(4-(1-methyl-1H-pyrazol-4-yl)phenyl)-1,6-naphthyridine-2-carboxamide]: the IC50 under setting [1] fell in the range of 101 to 500 nM.

Take `Cc1cncc2ccc(C(=O)N[C@H](C)c3ccccc3)nc12` [Compound 36, (R)-8-methyl-N-(1-phenylethyl)-1,6-naphthyridine-2-carboxamide]: the IC50 under setting [1] was < 10 nM.

Consider `CC(C)(O)Cn1cc(-c2ccc(-c3cncc4ccc(NS(C)(=O)=O)cc34)cc2)cn1` [Compound 138, N-(4-(4-(1-(2-hydroxy-2-methylpropyl)-1H-pyrazol-4-yl)phenyl)isoquinolin-6-yl)methanesulfonamide], for which the IC50 under setting [1] is < 10 nM.

Take `Cn1cc(-c2ccc(-c3cncc4ccc(-c5nn[nH]n5)nc34)cc2)cn1` [Compound 42, 8-(4-(1-methyl-1H-pyrazol-4-yl)phenyl)-2-(2H-tetrazol-5-yl)-1,6-naphthyridine]: the IC50 under setting [1] was 10 to 100 nM.

On to `O=C(c1ccc2cncc(Br)c2n1)N1CCC[C@H]1c1ccc(C(F)(F)F)cc1` [Compound 91, (S)-(8-bromo-1,6-naphthyridin-2-yl)(2-(4-(trifluoromethyl)phenyl)pyrrolidin-1-yl)methanone], for which the IC50 under setting [1] is 10 to 100 nM.

With `CN1c2ccc(-c3cncc4ccc(C(=O)NCCN)nc34)cc2CS1(=O)=O` [Compound 16, 8-(1-Methyl-2,2-dioxo-2,3-dihydro-1H-benzo[c]isothiazol-5-yl)-[1,6]naphthyridine-2-carboxylic acid (2-amino-ethyl)-amide], the IC50 under setting [1] is < 10 nM.

As to `COCCn1cc(-c2ccc(-c3cncc4ccc(NS(C)(=O)=O)cc34)cc2)cn1` [Compound 166, N-(4-(4-(1-(2-methoxyethyl)-1H-pyrazol-4-yl)phenyl)isoquinolin-6-yl)methanesulfonamide], the IC50 under setting [1] is < 10 nM.

Turning to `Cn1cc(-c2ccc(-c3cncc4ccc(C#N)cc34)cc2)cn1` [Compound 118, 4-(4-(1-methyl-1H-pyrazol-4-yl)phenyl)isoquinoline-6-carbonitrile], the IC50 under setting [1] was in the range of 10 to 100 nM.

As for `CN1C(=O)Cc2cc(-c3cnc(N)c4ccc(C(=O)N5CC(F)(F)C5)cc34)ccc21` [Compound 171, 5-[1-Amino-6-(3,3-difluoro-azetidine-1-carbonyl)-isoquinolin-4-yl]-1-methyl-1,3-dihydro-indol-2-one], the IC50 under setting [1] was 10 to 100 nM.

With `Cn1cc(-c2ccc(-c3cncc4ccc(NS(=O)(=O)C5(C)CC5)cc34)cc2)cn1` [Compound 168, 1-Methyl-cyclopropanesulfonic acid {4-[4-(1-methyl-1H-pyrazol-4-yl)-phenyl]-isoquinolin-6-yl}-amide], the half-inhibitory concentration (IC50) under setting [1] was < 10 nM.

`COC1CN(C(=O)c2ccc3cncc(-c4ccc5nn(CC(C)(C)O)cc5c4)c3c2)C1` [Compound 133, (4-(2-(2-hydroxy-2-methylpropyl)-2H-indazol-5-yl)isoquinolin-6-yl)(3-methoxyazetidin-1-yl)methanone] gave an IC50 of 10 to 100 nM.

Regarding `CN1c2ccc(-c3cncc4ccc(-c5ncco5)cc34)cc2CS1(=O)=O` [Compound 107, 1-methyl-5-(6-(oxazol-2-yl)isoquinolin-4-yl)-1,3-dihydrobenzo[c]isothiazole 2,2-dioxide], under setting [1], the IC50 was 10 to 100 nM.

Consider `O=C(c1ccc2cncc(Br)c2n1)N1CCC[C@H]1c1ccc(Cl)cc1` [Compound 34, (S)-(8-bromo-1,6-naphthyridin-2-yl)(2-(4-chlorophenyl)pyrrolidin-1-yl)methanone], for which, under setting [1], the 50% inhibitory concentration (IC50) was < 10 nM.

Take `Nc1ncc(-c2ccc3c(c2)NC(=O)C3)c2cc(C(=O)N3CC(F)(F)C3)ccc12` [Compound 154, 6-(1-amino-6-(3,3-difluoroazetidine-1-carbonyl)isoquinolin-4-yl)indolin-2-one]: the IC50 under setting [1] lay in the range of 10 to 100 nM.

By IC50 is commonly meant the concentration that inhibits the measured activity by half.
